Values joined by “and” are separate entries in the source; they are usually repeats but may differ in a detail not shown here. Identical values can stand only once.
How the values were obtained:
[1] = tested on: rats with middle cerebral artery occlusion (MCAO); assay: Body swing test (% right swing), MCAO rats, double crossover study (Example 2); assay type: in vivo, Sprague Dawley rat; details: for Body Swing Test (% right Swing), individual animals: one value per rat
Method: (§1) 4-AP was evaluated for its ability to promote functional sensorimotor improvement following ischemic stroke in rats with stable motor deficits at times remote from their ischemic events. The animal model mimics the conditions in human ischemic stroke and is produced by middle cerebral artery occlusion (MCAO), which results in extensive infarction in cerebral cortex and striatum, including the cortical spinal tract (white matter).
(§2) In particular, the MCAO model in Sprague Dawley rats that was utilized in the experiments presented below mimics the conditions in human ischemic stroke. In this model, focal cerebral infarcts were made by permanent occlusion of the proximal right middle cerebral artery (MCA) using a modification of the method of Tamura et al. (No To Shinkei 1986; 38:747-51). Briefly, the temporalis muscle was bisected and reflected through an incision made midway between the eye and the ear canal. The proximal MCA was exposed through a subtemporal craniectomy without removing the zygomatic arch and without transecting the facial nerve.
(§3) Dosing and Treatment: Rats were treated in accordance with the dosing schedule shown in Tables 2A, 2B, 3 and FIG. 2, with each Phase being a two week period of time. A solution of 4-AP was used in this experiment. Dosing was started at 4 weeks after ischemic event. 4-aminopyridine was dissolved in water for injection (WFI, Cellgro) and sterile filtered. Final concentrations of 0.315 mg/mL or 1.0 mg/mL of 4-aminopyridine were delivered at 2 mL/kg by gastric gavage, resulting in final doses of 0.63 mg/kg and 2 mg/kg respectively. Vehicle control treatment was WFI delivered at 2 mL/kg by gastric gavage. This study was divided into three treatment phases (1-3) with each randomized cohort of animals receiving a different dose level during each of the treatment phases. Starting on day 30 after MCAO (Day 30, start of phase 1), the animals received gavage dosing of solutions (2 mL/kg) approximately 12 hours apart, for a total of five doses. The same schedule was repeated with different treatment on Day 44 and Day 58 for phase 2 and 3 of the study, respectively. Animals were not treated during the 10 days between phases (washout period).
(§4) Treatment groups: Dosing was started 4 weeks after MCAO surgery. During these 4 weeks, weekly behavioral assessments, as defined below, were performed. Two dose levels of 4-AP plus vehicle control were assessed, with treatment starting at 4 weeks after ischemic event. All dosing was via gastric gavage, volume not to exceed 2 mL/kg. Animals were given the first dose and behavioral assessments were performed starting 60 minutes after dosing. Animals then received the second dose that day at the appropriate time and b.i.d (preferably every 12 hours) thereafter for 2 more days (3 total days of dosing, 5 total doses). One hour after the 5th dose, animals were subjected to behavioral assessments as defined below. Following the final behavioral assessment, drug was withdrawn for 10 or 11 days, behavior was re-assessed, and then animals were re-challenged with a cross-over treatment (Phase 2 of Table 2B) as described in Tables 2A, 2B and 3, followed by the same behavioral testing and dosing regimen. This cross-over was repeated one more time as well (Phase 3 of Table 2B) (see FIG. 2).
(§5) Behavioral test details: Behavioral evaluations were done by evaluators blinded to treatment assignment. Blinded assessments of sensorimotor function were performed just prior to MCAO surgery, 24 hours after MCAO surgery and weekly thereafter until the first phase of dosing using limb placing and body swing behavioral tests. As described above, behavioral assessments were timed exactly with dosing times. Animals were tested one hour after the 1st and 5th doses of each phase (i.e., Days 30 and 32 of the first phase, Days 44 and 46 of the second phase; and Days 58 and 60 of the third phase); animals were also tested during the washout periods on Days 42 and 56. […]

[2] = tested on: rats with middle cerebral artery occlusion (MCAO); assay: Infarct volume measurement (H&E), MCAO rats (Example 2); assay type: in vivo, Sprague Dawley rat; details: Day 63
Method: Euthanasia and post-mortem processing: Infarct Volume analysis. After the last behavioral assessment, rats were anesthetized deeply with ketamine/xylazine (100 mg/kg ketamine, 10 mg/kg xylazine, i.p.) and perfused transcardially with normal saline (with heparin 2 unit/ml) followed by 4% paraformaldehyde or formalin on Day 63. Brains were harvested and processed for histological assessment. A subset of 10 brains per group was processed for infarct volume measurement (H&E staining).
(§6) Infarct measurement: Brains were embedded in paraffin and 5 micron thick coronal sections were cut using a microtome. Sections were stained with hematoxylin and eosin (H&E), using standard methods. Seven coronal sections (+4.7, +2.7, +0.7, −1.3, −3.3, −5.3 and −7.3, compared to bregma respectively) from each brain were photographed by a digital camera, and the infarct area on each slice was determined by NIH Image (Image J) using the “indirect method” (area of the intact contralateral [left] hemisphere−area of intact regions of the ipsilateral [right] hemisphere) to correct for brain edema. Infarct areas were then summed among slices and multiplied by slice thickness (the distance between sections) to give total infarct volume, which was expressed as a percentage of intact contralateral hemispheric volume.

[3] = tested on: rats with middle cerebral artery occlusion (MCAO); assay: Infarct volume measurement, MCAO rats (Example 17); assay type: in vivo, Sprague Dawley rat
Method: as §6
Euthanasia and post-mortem processing: At day 70 after MCAO rats were anesthetized as described in Example 2, above.
Infarct measurement: Infarct measurement was performed as described in Example 2, above.
Statistical Methods: Changes from pre-treatment baseline values (Day 56) were calculated for each behavioral score at each time point assessed after dosing. Mean behavioral parameter data were subject to Analysis of Variance (ANOVA). Infarct volume data were analyzed by ANOVA. All data were expressed as means±SEM.

[4] = Hayes et al., J. Clin. Pharmacol. 2003; cited from earlier work
[5] = tested on: rats with middle cerebral artery occlusion (MCAO); assay: Hindlimb placing test, MCAO rats, double crossover study (Example 2); assay type: in vivo, Sprague Dawley rat; design: Hindlimb Placing Total Score, individual animals / Hindlimb Placing Total Score, Mean: scale not given here; details: for Hindlimb Placing Total Score, individual animals: one value per rat; for Hindlimb Placing Total Score, Mean: N 15
Method: as §1, §2, §3, §4, §5

[6] = Group 2 (sequence lvh), D30 after MCAO, phase 1, low dose
[7] = Group 2 (sequence lvh), D32 after MCAO, phase 1, low dose
[8] = Group 2 (sequence lvh), D58 after MCAO, phase 3, high dose
[9] = Group 2 (sequence lvh), D60 after MCAO, phase 3, high dose
[10] = Group 3 (sequence vhl), D44 after MCAO, phase 2, high dose
[11] = Group 3 (sequence vhl), D46 after MCAO, phase 2, high dose
[12] = Group 3 (sequence vhl), D58 after MCAO, phase 3, low dose
[13] = Group 3 (sequence vhl), D60 after MCAO, phase 3, low dose

Nc1ccncc1 [4-aminopyridine]
Body swing function, low dose compared to vehicle, second mixed model ([1]; 0.63 mg/kg b.i.d. p.o., level 0.05): didn't show the statistical significant improvement | Body swing function, low dose compared to vehicle, first mixed model ([1]; 0.63 mg/kg b.i.d. p.o., p=0.033): significantly improved the body swing function | Body swing function, high dose compared to vehicle ([1]; 2 mg/kg b.i.d. p.o., first mixed model p=0.0131, second p<0.0001): significantly improved the body swing function | Body Swing Test (% right Swing), individual animals ([1]; Group 1 (sequence hlv), D30 after MCAO, phase 1, high dose): 33.33% and 40.00% (2×) and 30.00% | Body Swing Test (% right Swing), individual animals ([1]; Group 1 (sequence hlv), D32 after MCAO, phase 1, high dose): 50.00% (3×) and 40.00% (2×) and 30.00% | Body Swing Test (% right Swing), individual animals ([1]; Group 1 (sequence hlv), D44 after MCAO, phase 2, low dose): 33.33% and 50.00% and 40.00% (2×) and 30.00% (2×) | Body Swing Test (% right Swing), individual animals ([1]; Group 1 (sequence hlv), D46 after MCAO, phase 2, low dose): 33.33% and 30.00% and 20.00% (2×) and 40.00% | Body Swing Test (% right Swing), individual animals [1, 6]: 20.00% and 40.00% and 30.00% (2×) | Body Swing Test (% right Swing), individual animals [1, 7]: 40.00% and 30.00% (2×) | Body Swing Test (% right Swing), individual animals [1, 8]: 40.00% and 50.00% (2×) | Body Swing Test (% right Swing), individual animals [1, 9]: 40.00% (5×) and 50.00% (4×) | Body Swing Test (% right Swing), individual animals [1, 10]: 40.00% (3×) and 43.33% (2×) and 46.67% (2×) and 53.33% and 13.33% and 36.67% and 50.00% (2×) and 23.33% and 33.33% | Body Swing Test (% right Swing), individual animals [1, 11]: 40.00% (3×) and 43.33% (4×) and 50.00% and 30.00% (2×) and 53.33% (3×) and 20.00% and 23.33% | Body Swing Test (% right Swing), individual animals [1, 12]: 30.00% (3×) and 46.67% (3×) and 40.00% (2×) and 20.00% (3×) and 53.33% and 33.33% | Body Swing Test (% right Swing), individual animals [1, 13]: 30.00% (2×) and 43.33% (2×) and 36.67% (4×) and 50.00% (2×) and 26.67% and 23.33% | Body swing scores, Day 56 vs. Day 60 ([1]; Group 3, third treatment phase, low dose 0.63 mg/kg): unchanged | Effect on global body control, body swing test (FIG. 5) ([1]; low or high dose, reversible and dose-dependent): effective to improve global body control | Mean infarct volume (% of contralateral hemisphere) ([2]; Group 1 (sequence high, low, vehicle)): 45.0 (±1.8) % | Mean infarct volume (% of contralateral hemisphere) ([2]; Group 2 (sequence low, vehicle, high)): 41.4 (±2.3) % | Mean infarct volume (% of contralateral hemisphere) ([2]; Group 3 (sequence vehicle, high, low)): 39.0 (±3.3) % | Mean (SE) Infarct Volume (%) ([3]; 4-AP dose escalation 0.5, 1 and 2 mg/kg p.o. b.i.d. Days 56-65 after MCAO): 40.0 (2.3) % | Infarct volume, 4-aminopyridine versus vehicle (water) ([3]; Day 70 after MCAO): no differences in infarct volume were observed | half life [4]: 1 to 1.5 h | Hindlimb function, low dose compared to vehicle ([5]; 0.63 mg/kg b.i.d. p.o., first mixed model, p=0.0027): significantly improved the hindlimb function | Hindlimb function, high dose compared to vehicle ([5]; 2 mg/kg b.i.d. p.o., first mixed model, p<0.0001): significantly improved the hindlimb function | Hindlimb Placing Total Score, individual animals [5, 6]: 2.50 and 1.50 (6×) and 2.00 (5×) and 1.00 and 0.50 and 3.00 | Hindlimb Placing Total Score, individual animals [5, 7]: 2.00 (2×) and 1.00 (4×) and 1.50 (8×) and 0.50 | Hindlimb Placing Total Score, individual animals [5, 8]: 2.00 (2×) and 0.00 (5×) and 1.00 and 1.50 (4×) and 0.50 (3×) | Hindlimb Placing Total Score, individual animals [5, 9]: 0.50 (5×) and 0.00 (9×) and 1.00 | Hindlimb Placing Total Score, Mean [5, 10]: 0.90 | Hindlimb Placing Total Score, individual animals [5, 10]: 2.00 (2×) and 0.00 (3×) and 1.50 and 1.00 (2×) and 0.50 (2×) | Hindlimb Placing Total Score, Mean [5, 11]: 0.30 | Hindlimb Placing Total Score, individual animals [5, 11]: 1.00 and 0.00 (6×) and 0.50 (3×) | Hindlimb Placing Total Score, Mean [5, 12]: 0.80 | Hindlimb Placing Total Score, individual animals [5, 12]: 1.50 and 0.50 (3×) and 1.00 (3×) and 3.00 and 0.00 (2×) | Hindlimb Placing Total Score, Mean [5, 13]: 0.70 | Hindlimb Placing Total Score, individual animals [5, 13]: 1.50 and 1.00 (3×) and 0.50 (2×) and 2.00 and 0.00 (3×) | Effect on hindlimb function (FIGS. 4A-D) ([5]; low or high dose, 4 weeks post ischemic brain injury, dose responsive, reversible): effective to improve hindlimb function
